Assay: Oxygen Radical Absorbance Capacity (ORAC) protocol
Conditions: for TEAC: Trolox equivalent AO capacity calculated from ORAC values; for TEAC values compared to the compounds of the invention: in words
Description: Antioxidant potential is evaluated using the Oxygen Radical Absorbance Capacity (ORAC) protocol. ORAC is a chemical in-vitro method based on the hydrogen atom transfer (HAT) mechanism (see N. Re et al., Free Radical Biology & Medicine, 26 (9/10), 1231 (1997)). ORAC measures antioxidant inhibition of peroxyl radical induced oxidations and thus reflects classical radical chain breaking antioxidant activity by H atom transfer. In this assay, the peroxyl radical reacts with a fluorescent probe to form a non-fluorescent product. This is quantitated using a fluorescence measurement. Antioxidant capacity is determined by decreased rate and amount of product formed over time. This assay depends upon the free radical damage to the fluorescent probe resulting in the change in its fluorescence intensity. The change of fluorescence intensity is an indicator of the degree of free radical damage. In the presence of an antioxidant, the inhibition of free radical damage is reflected in higher fluorescence intensity and can be measured as antioxidant capacity against the free radicals. The uniqueness of ORAC assay is that the reaction is driven to completion. This allows calculation of the area under the curve (AUC) and gives an absolute quantitation of antioxidancy as opposed to relative measurements in many other assays.
As noted, the longer it takes to observe a decrease in fluorescence, the higher the antioxidant (AO) potential. From the AUC for a given antioxidant, the AUC for blank is subtracted to give its ORAC value. The concentration of AO needed to give the same AUC values as Trolox is calculated and used to represent the Trolox equivalent AO Capacity (TEAC). Trolox is ((±)-6-Hydroxy-2,5,7,8-tetramethylchromane-2-carboxylic acid, CAS #53188-07-1), and is used as an internal control.
The ORAC test is conducted in the compounds of Table 1 above (inventive compounds) as well as to Vitamin C, Vitamin E, and the following comparative compounds:
The inventive nitrones in the ORAC test solutions were at a concentration of 30 micromolar, while the concentrations of Trolox, Vitamin C, Vitamin E, BHT, PBN+BHT, and VAL-IPHA were at 100 micromolar. The TEAC values calculated from the ORAC values are listed the Table 2.

[1] = inventive nitrones at 30 micromolar
[2] = test concentration 100 micromolar

| Compound | TEAC [1] | TEAC [2] | TEAC values compared to the compounds of the invention |
| --- | --- | --- | --- |
| [O-]/[N+](=C\c1ccc(O)cc1)Cc1ccc(O)cc1 [compound 2] | 2.94 |  |  |
| Cc1cc(C(C)(C)C)c(O)c(C(C)(C)C)c1 [BHT] |  | 0.11-0.21 | not very high |
| CCCC/C=[N+](\[O-])C(C)C [VAL-IPHA] |  | 0.18 | not very high |
| O=C1O[C@H]([C@@H](O)CO)C(O)=C1O [Vitamin C] |  | 0.76 |  |
| CC(C)(C)/[N+]([O-])=C/c1ccccc1 [PBN] |  |  | not very high |
| Vitamin E |  | 0.13 |  |
| COc1cc(/C=[N+](\[O-])Cc2ccc(O)cc2O)ccc1O [compound 1] | 6.45 |  |  |
